Data set [1] has as its target T1, AKT1 WT (Homo sapiens (Human), UniProt P31749). Nature of the data set: Dissociation rate of Compound A and Compound B by competition with ARQ-092, LCMS. The data set is classed as binding. As to conditions: compound 5 μM, 15 minutes, then ARQ-092 50 μM; 25 mM HEPES pH 8.0, 150 mM NaCl. The procedure:
(§1) Determination of compound dissociation rate by intact protein mass spectrometry:Recombinant AKT1 containing appropriate mutations (1 μM) was treated with inhibitor (5 μM) at room temperature. After 15 minutes, ARQ-092 (50 μM final concentration) was added to prevent aldehyde-containing compound rebinding after initial dissociation. At various timepoints, aliquots were removed and quenched with 5 mM NaBH4 to capture the reversible imine through reductive amination, then analyzed by LCMS. Deconvoluted monoisotopic intensities of unmodified vs. compound-modified mass peaks were compared.
(§2) AKT1(E17K or WT) (1 μM) was incubated with Compound A or Compound B (5 μM) for 15 minutes in 25 mM HEPES pH 8.0, 150 mM NaCl buffer. Then ARQ-092 (50 μM) was added and aliquots quenched with 5 mM NaBH4 at a series of timepoints and the percentage labelling determined by LCMS. FIG. 32A and FIG. 32B provide competition data (dissociation rates) for Compound A and Compound B in both wild-type AKT1 and AKT1 E17K against ARQ-092. Table 8 provides half-life data based on the dissociation studies described herein.
Target sequence in this assay (P31749 2-480): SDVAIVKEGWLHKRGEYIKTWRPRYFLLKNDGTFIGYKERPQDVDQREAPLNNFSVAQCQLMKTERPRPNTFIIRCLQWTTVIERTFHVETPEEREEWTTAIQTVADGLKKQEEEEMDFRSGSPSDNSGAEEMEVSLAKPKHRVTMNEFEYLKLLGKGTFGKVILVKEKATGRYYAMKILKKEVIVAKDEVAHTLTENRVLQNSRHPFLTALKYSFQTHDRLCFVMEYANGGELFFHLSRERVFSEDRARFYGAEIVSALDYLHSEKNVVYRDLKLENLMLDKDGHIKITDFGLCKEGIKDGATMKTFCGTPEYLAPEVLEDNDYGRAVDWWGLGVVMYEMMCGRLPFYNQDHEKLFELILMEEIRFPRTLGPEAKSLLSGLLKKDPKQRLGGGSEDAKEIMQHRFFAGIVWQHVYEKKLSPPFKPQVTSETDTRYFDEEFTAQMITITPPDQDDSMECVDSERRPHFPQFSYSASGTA

The target in data set [2] is T2, AKT1 E17K (Homo sapiens (Human), UniProt P31749, E17K). The description is as above. The data set is classed as binding. Here is the method:
as §1, §2
Target sequence in this assay (P31749 2-480 E17K): as the sequence (P31749 2-480) above, with E16K counted along it

The target of the next data set is BEAS2B-AKT1(E17K) (Homo sapiens (Human), UniProt P31749, E17K). Nature of the data set: Washout, target engagement durability in intact cells (in-gel fluorescence). The data set is classed as cell-based. Here is the method: (§3) FIG. 31 illustrates in-gel fluorescence and western blot wash out experiments of BEAS2B-AKT1(WT) and BEAS2B-AKT1(E17K) following incubation of the cells with Compound B for 0.5 hr. Wash out periods were 0 hr, 0.5 hr, 1 hr, 1.5 hr, 3 hrs, and 21 hrs.
(§4) Measurement of target engagement durability in intact cells: Beas-2b cells stably over-expressing either Flag-AKT1 WT or Flag-AKT1 E17K were treated with compound for 30 minutes at 37 C. The media was then aspirated and replaced with fresh media and the cells were incubated at 37° C. At various timepoints, cells were washed with PBS and then lysed in buffer containing 5 mM NaBH4. After 1 h, the lysate was precipitated in MeOH/CHCl3, resuspended in 1% SDS in PBS and then subjected to copper catalyzed click chemistry with TAMRA-biotin-azide. The samples were precipitated again and then resuspended in 1.5× SDS loading buffer, separated by SDS-PAGE and analyzed by in-gel fluorescence and western blot.

A further data set addresses BEAS2B-AKT1(WT) (Homo sapiens (Human), UniProt P31749). Described as above. The data set is classed as cell-based. The conditions noted are these: incubation 0.5 hr; 21 hours of dilution compared to 1 hour. The procedure: as §3, §4
For data set [3], the target named is T2, AKT1 E17K. The data set is described as follows: Live cell target engagement (NanoBRET) in HEK293 cells. It counts as cell-based. As to conditions: HEK293, 2 h at 37 C; Table 7. In general terms: Bioluminescence resonance energy transfer reports proximity on the nanometre scale.
Target sequence in this assay (P31749 whole entry E17K): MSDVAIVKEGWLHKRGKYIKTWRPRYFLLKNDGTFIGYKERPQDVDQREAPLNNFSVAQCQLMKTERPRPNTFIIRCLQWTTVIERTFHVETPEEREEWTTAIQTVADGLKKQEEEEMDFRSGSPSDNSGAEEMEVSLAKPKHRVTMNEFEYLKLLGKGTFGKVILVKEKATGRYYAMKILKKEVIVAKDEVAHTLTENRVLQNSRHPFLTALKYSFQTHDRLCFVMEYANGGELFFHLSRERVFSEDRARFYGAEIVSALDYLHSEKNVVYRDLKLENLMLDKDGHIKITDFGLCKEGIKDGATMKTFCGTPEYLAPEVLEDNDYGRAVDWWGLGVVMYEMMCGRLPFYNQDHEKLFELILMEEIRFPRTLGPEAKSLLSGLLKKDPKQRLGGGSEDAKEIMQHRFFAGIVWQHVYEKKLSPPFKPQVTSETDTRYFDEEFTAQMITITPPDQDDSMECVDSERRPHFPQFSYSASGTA
Data set [4] addresses T1, AKT1 WT. Described as above. The conditions noted are these: HEK293, 2 h at 37 C; Table 7. The data set is classed as cell-based.
Target sequence in this assay (P31749 whole entry): as the sequence (P31749 whole entry E17K) above, with K17E counted along it
The next data set deals with AKT2 (Homo sapiens (Human), UniProt P31751). The description is as above. The data set is classed as cell-based. The conditions noted are these: HEK293, 2 h at 37 C; Table 7.

SMILES strings stand for the structures. Bounds are passed on as bounds.

Sequence of BEAS2B-AKT1(E17K) (P31749 whole entry E17K): as the sequence (P31749 whole entry E17K) above
Sequence of AKT2 (P31751 whole entry): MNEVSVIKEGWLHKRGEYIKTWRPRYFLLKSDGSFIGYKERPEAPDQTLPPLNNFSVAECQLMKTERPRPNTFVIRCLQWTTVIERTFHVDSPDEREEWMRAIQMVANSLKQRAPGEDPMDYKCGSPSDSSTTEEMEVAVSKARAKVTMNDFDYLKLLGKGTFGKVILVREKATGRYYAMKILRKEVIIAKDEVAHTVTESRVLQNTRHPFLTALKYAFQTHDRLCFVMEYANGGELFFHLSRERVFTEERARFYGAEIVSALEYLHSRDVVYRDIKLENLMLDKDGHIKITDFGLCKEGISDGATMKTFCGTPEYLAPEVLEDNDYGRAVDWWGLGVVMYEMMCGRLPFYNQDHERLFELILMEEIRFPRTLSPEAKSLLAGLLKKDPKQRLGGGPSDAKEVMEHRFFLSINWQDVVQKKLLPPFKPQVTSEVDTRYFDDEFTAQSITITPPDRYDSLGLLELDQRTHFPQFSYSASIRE
Sequence of BEAS2B-AKT1(WT) (P31749 whole entry): as the sequence (P31749 whole entry E17K) above, with K17E counted along it

What is called IC50 is the point on the concentration scale where inhibition reaches its midpoint. Read a low IC50 as greater potency in that assay. For `C#Cc1cccc(-c2ccc3nc(-c4cccnc4N)n(-c4ccc(CNCCc5ccc(C=O)c(O)c5)cc4)c3n2)c1` [Compound B, 4-(2-((4-(2-(2-aminopyridin-3-yl)-5-(3-ethynylphenyl)-3H-imidazo[4,5-b]pyridin-3-yl)benzyl)amino)ethyl)-2-hydroxybenzaldehyde], the “AKT1 (WT) t1/2” value at AKT1 WT [1] was found to be 1.21 h. In addition, at AKT1 E17K [2] (compound 5 μM, 15 minutes, then ARQ-092 50 μM, 25 mM HEPES pH 8.0, 150 mM NaCl), the “AKT1 E17K t1/2” value is 17.28 h. Also, the “Off-rate Selectivity E17K/WT” value on AKT1 E17K [2] (ratio of t1/2) is recorded as 14.7. On BEAS2B-AKT1(E17K) (incubation 0.5 hr, 21 hour of washout compared to 1 hour), the “extent of binding to E17K AKT1 after washout” value was “roughly equivalent to binding after 1 hour of washout”. Further, the “selectivity of binding, E17K AKT1 versus WT-AKT1” value at BEAS2B-AKT1(E17K) (washout experiment) is recorded as “binds with substantial selectively to K17 in E17K AKT1”. Moreover, the “extent of binding to WT-AKT1 after washout” value on BEAS2B-AKT1(WT) is recorded as “markedly diminished”. Further, the IC50 against AKT1 E17K [3] is below 100 nM; against AKT1 WT [4], 100 to 500 nM; against AKT2, above 500 nM.

These data come from patent US20250115600A1, “COVALENT MODIFIERS OF AKT1 AND USES THEREOF” (Terremoto Biosciences, Inc., priority 2022, published 2025).
